13 compounds from patent US9850257B2, “Tricyclic heterocycles as BET protein inhibitors” (Incyte Corporation, priority 2013, dated 2017) can be followed below.

Molecules are shown by their SMILES. Counter-ions that a name gives are not always drawn.

The target of one test is BRD4-BD1 (Homo sapiens (Human), UniProt O60885). Description: BRD4 AlphaScreen assay (BD1). It counts as binding. The note with it: biotin-labeled tetra-acetylated histone H4 peptide, 3.8 nM BRD4-BD1, read-out: BRD4 BD-1 enzyme IC50. The procedure: (§1) BRD4-BD1 and BRD4-BD2 assays were conducted in white 384-well polystyrene plate in a final volume of 20 μL for BD1 and 40 μL for BD2. Inhibitors were first serially diluted in DMSO and added to the plate wells before the addition of other reaction components. The final concentration of DMSO in the assay was 1.25% (BD1) and 0.83% (BD2). The assays were carried out at room temperature for 75 min. in the assay buffer (50 mM HEPES, pH 7.4, 100 mM NaCl, 0.05% CHAPS, 0.01% BSA), containing 50 nM Biotin-labeled tetra-acetylated histone H4 peptide (H4Ac4), 3.8 nM (BRD4-BD1, BPS Bioscience #31040) or 20 nM (BRD4-BD2, BPS Bioscience #31041). The reaction followed by the addition of 20 μL of assay buffer supplemented with Streptavidin donor beads (PerkinElmer 6760002) and GSH Acceptor beads (PerkinElmer-AL109C) at 4 jag/mL under reduced light. After plate sealing, the plate was incubated in the dark at room temperature for 75 min. before reading on a PHERAstar FS plate reader (BMG Labtech). IC50 determination was performed by fitting the curve of percent control activity versus the log of the inhibitor concentration using the GraphPad Prism 5.0 software.

Test [1] concerns KMS.12.BM cell line (human myeloma). Briefly: KMS.12.BM cell viability assay. The note with it: 72 h, KMS.12.BM cells, 3 days, Cell Titer-GLO ATP quantitation, read-out: KMS cellular IC50. It counts as cell-based. Here is the method: KMS.12.BM Cell Viability Assay
KMS.12.BM cell line (human myeloma) was purchased from JCRB (Osaka, Japan) and maintained in RPMI with 10% FBS culture medium. To measure the cytotoxic activity of the compounds through ATP quantitation, the KMS. 12.BM cells are plated in the RPMI culture medium at 5000 cells/well/per 100 μL into a 96-well polystyrene clear black tissue culture plate (Greiner-bio-one through VWR, NJ), in the presence or absence of a concentration range of test compounds. After 3 days, […] Cell Titer-GLO Luminescent (Promega, Madison, Wis.) cell culture agent is added to each well for 10 minutes at room temperature to stabilize the luminescent signal. This determines the number of viable cells in culture based on quantitation of the ATP present, which signals the presence of metabolically active cells. Luminescence is measured with the Top Count 384 (Packard Bioscience through Perkin Elmer, Boston, Mass.). Compound inhibition is determined relative to cells cultured with no drug and the IC50 reported as the compound concentration required for 50% cell death.

A further test addresses BRD4-BD2 (Homo sapiens (Human), UniProt O60885). Briefly: BRD4 AlphaScreen assay (BD2). It counts as binding. As to conditions: biotin-labeled tetra-acetylated histone H4 peptide, 20 nM BRD4-BD2, read-out: BRD4 BD-2 enzyme IC50. The procedure: as §1

With `Cc1noc(C)c1-c1ccc2c(=O)[nH]n3c2c1OCC3c1ccccn1` (centres unmarked) [Example 5, 9-(3,5-Dimethylisoxazol-4-yl)-3-pyridin-2-yl-2,3-dihydro[1,4]oxazino[2,3,4-hi]indazol-6(5H)-one], the values for the IC50 (on BRD4-BD1; in test [1]; on BRD4-BD2) were 0.2 to 1 µM, no more than 1 µM and no more than 0.2 µM, respectively.

In the case of `Cc1noc(C)c1-c1ccc2c(=O)[nH]n3c2c1OCC3c1cccnc1` (centres unmarked) [Example 10, 9-(3,5-Dimethylisoxazol-4-yl)-3-pyridin-3-yl-2,3-dihydro[1,4]oxazino[2,3,4-hi]indazol-6(5H)-one], the half-inhibitory concentration (IC50) (commonly the midpoint of a concentration-inhibition curve) at BRD4-BD1 is 0.2 to 1 µM; in test [1] it was 1 to 10 µM; on BRD4-BD2, no more than 0.2 µM.

Consider `COc1nn2c3c(c(-c4c(C)noc4C)ccc13)OCC2c1ccccn1` (centres unmarked) [Example 7, 9-(3,5-Dimethylisoxazol-4-yl)-6-methoxy-3-pyridin-2-yl-2,3-dihydro[1,4]oxazino[2,3,4-hi]indazole], for which the IC50 was no more than 0.2 µM on BRD4-BD1, no more than 1 µM in test [1] and no more than 0.2 µM at BRD4-BD2.

Regarding `COc1nn2c3c(c(-c4c(C)noc4C)ccc13)OCC2c1cccnc1` (centres unmarked) [Example 12, 9-(3,5-Dimethylisoxazol-4-yl)-6-methoxy-3-pyridin-3-yl-2,3-dihydro[1,4]oxazino[2,3,4-hi]indazole], the results for the IC50 (on BRD4-BD1; in test [1]; on BRD4-BD2) were no more than 0.2 µM, no more than 1 µM and no more than 0.2 µM, respectively.

`Cc1noc(C)c1-c1ccc2cnn3c2c1OCC3c1ccccn1` (centres unmarked) [Example 8, 9-(3,5-Dimethylisoxazol-4-yl)-3-pyridin-2-yl-2,3-dihydro[1,4]oxazino[2,3,4-hi]indazole trifluoroacetate]: the IC50 was no more than 0.2 µM on BRD4-BD1, no more than 1 µM in test [1] and no more than 0.2 µM at BRD4-BD2.

Regarding `Cc1noc(C)c1-c1cc(Br)c2cnn3c2c1OCC3c1ccccc1` (centres unmarked) [Example 9, 7-Bromo-9-(3,5-dimethylisoxazol-4-yl)-3-phenyl-2,3-dihydro[1,4]oxazino[2,3,4-hi]indazole], the IC50 at BRD4-BD1 was 0.2 to 1 µM; in test [1] it was 1 to 10 µM; at BRD4-BD2, no more than 0.2 µM.

With `Cc1noc(C)c1-c1ccc2c(=O)[nH]n3c2c1OCC3c1ccccc1` (centres unmarked) [Example 1, 9-(3,5-Dimethylisoxazol-4-yl)-3-phenyl-2,3-dihydro[1,4]oxazino[2,3,4-hi]indazol-6(5H)-one], the IC50 on BRD4-BD1 was no more than 0.2 µM; in test [1], no more than 1 µM; at BRD4-BD2, no more than 0.2 µM.

Take `COc1nn2c3c(c(-c4c(C)noc4C)ccc13)OCC2c1ccccc1` (centres unmarked) [Example 3, 9-(3,5-Dimethylisoxazol-4-yl)-6-methoxy-3-phenyl-2,3-dihydro[1,4]oxazino[2,3,4-hi]indazole]: the IC50 was no more than 0.2 µM at BRD4-BD1, no more than 1 µM in test [1] and no more than 0.2 µM on BRD4-BD2.

For `Cc1noc(C)c1-c1ccc2cnn3c2c1OCC3c1ccccc1` (centres unmarked) [Example 4, 9-(3,5-Dimethylisoxazol-4-yl)-3-phenyl-2,3-dihydro[1,4]oxazino[2,3,4-hi]indazole], the values for the IC50 (on BRD4-BD1; in test [1]; on BRD4-BD2) were no more than 0.2 µM, no more than 1 µM and no more than 0.2 µM, respectively.

`Cc1noc(C)c1-c1cc(F)c2nnn3c2c1OCC3c1cccnc1` (centres unmarked) [Example 13, 7-(3,5-Dimethylisoxazol-4-yl)-9-fluoro-4-pyridin-3-yl-4,5-dihydro[1,2,3]triazolo[1,5,4-de][1,4]benzoxazine trifluoroacetate]: the results for the IC50 at BRD4-BD1 and at BRD4-BD2 were greater than 1 µM and 0.2 to 1 µM, respectively.

Consider `Cc1noc(C)c1-c1ccc2c(=O)n(C)n3c2c1OCC3c1ccccn1` (centres unmarked) [Example 6, 9-(3,5-Dimethylisoxazol-4-yl)-5-methyl-3-pyridin-2-yl-2,3-dihydro[1,4]oxazino[2,3,4-hi]indazol-6(5H)-one], for which the IC50 was no more than 0.2 µM on BRD4-BD1, no more than 1 µM in test [1] and no more than 0.2 µM at BRD4-BD2.

Consider `Cc1noc(C)c1-c1ccc2c(=O)n(C)n3c2c1OCC3c1cccnc1` (centres unmarked) [Example 11, 9-(3,5-Dimethylisoxazol-4-yl)-5-methyl-3-pyridin-3-yl-2,3-dihydro[1,4]oxazino[2,3,4-hi]indazol-6(5H)-one], for which the IC50 on BRD4-BD1 was no more than 0.2 µM; in test [1], no more than 1 µM; at BRD4-BD2, no more than 0.2 µM.

As for `Cc1noc(C)c1-c1ccc2c(=O)n(C)n3c2c1OCC3c1ccccc1` (centres unmarked) [Example 2, 9-(3,5-Dimethylisoxazol-4-yl)-5-methyl-3-phenyl-2,3-dihydro[1,4]oxazino[2,3,4-hi]indazol-6(5H)-one], the figures for the IC50 (at BRD4-BD1; in test [1]; on BRD4-BD2) were no more than 0.2 µM, no more than 1 µM and no more than 0.2 µM, respectively.
